In patent US20230346827A1 (priority 2020, published 2023):

Test system: rats subjected to sTBI
Test: sTBI rats, LMW-DS 1, 5, 15 mg/kg s.c. 30 min post-TBI: HPLC of brain energy metabolites, antioxidants, oxidative/nitrosative stress biomarkers (Example 4)
Format: in vivo, rat
Conditions: for ATP/ADP / NAD+/NADH: adimensional ratio
Experimental: Male Wistar rats (n=160) of 300-350 g body weight were used in this study. They were fed with standard laboratory diet and water ad libitum in a controlled environment.
As the accepted anesthetic mixture, animals received 35 mg/kg b.w. ketamine and 0.25 mg/kg body weight midazolam by intramuscular injection. Diffuse sTBI was induced according to the “weight drop” impact acceleration model set up by Marmarou et al. J. Neurosurg. 1994, 80: 291-300. This model causes diffuse axonal injury and it is able to reproduce the physical and mechanical characteristics of the diffuse TBI in humans.
Severe TBI was induced by dropping a 450 g weight from 2 meters height onto the rat head protected by a helmet (metal disk previously fixed on the skull using dental cement) in order to uniformly distribute the mechanical force to the brain. Rats were placed prone on a bed of specific polyurethane foam inserted in a special container; this foam dissipates the major part of the potential energy (deriving from the mechanical forces) and prevents any rebound of the animal after the impact that could produce spinal damages.
After 2 or 7 days from TBI induction, rats were anesthetized again and then immediately sacrificed. These time points are coincident with the worst biochemical derangement (2 days) or, in the case of a mildly injured brain, with a full metabolic recovery (7 days).
The drug treatment consisted in a subcutaneous injection of 0.5 ml of LMW-DS (ILB®, Tikomed, Viken, Sweden, WO 2016/076780) and administered at 3 different concentrations (1, 5 and 15 mg/kg body weight), according to the schematic protocol described below. Sham-operated animals underwent the same procedure of anesthesia but TBI and were used as the control group.
(§1) Rats subjected to sTBI and receiving a single administration of LMW-DS after 30 minutes post-TBI, with sacrifice at 2 days post-TBI. Animals were divided in the following subgroups: • 1. 12 animals subjected to sTBI and treated with 1 mg/kg b.w. LMW-DS • 2. 12 animals subjected to sTBI and treated with 5 mg/kg b.w. LMW-DS • 3. 12 animals subjected to sTBI and treated with 15 mg/kg b.w. LMW-DS
as §1, with “at 7” for “at 2”
Rats (n = 12) subjected to sTBI and receiving repeated administrations of the maximal dose of LMW-DS (15 mg/kg b.w.) after 30 minutes, 3 days and 5 days post-TBI, with sacrifice at 7 days post-TBI. Four additional rats were used for the histo-morphological studies. Total rats in this group: n=16
To minimize metabolite loss, an in vivo craniectomy was performed in all animals during anesthesia. The rat skull was carefully removed, the brain was exposed, sharply cut along the sagittal fissure and the two hemispheres were separated. The hemispheres dedicated to biochemical analyses were freeze-clamped by aluminum tongues pre-cooled in liquid nitrogen and then immersed in liquid nitrogen. The freeze-clamping procedure was introduced to accelerate freezing of the tissue, thus minimizing potential metabolite loss.
Tissue homogenization for metabolite analyses was effected as described below. After the wet weight (w.w.) determination, the frozen hemispheres were placed into 7 ml of ice-cold, nitrogen-saturated, precipitating solution (1:10 w/v) composed by CH3CN + 10 mM KH2PO4, pH 7.40, (3:1; v:v), and the homogenization was performed using an Ultra-Turrax homogenizer set at 24,000 rpm/min (Janke & Kunkel, Staufen, Germany). […]

[1] = 15 mg/kg repeated, 7 d post-sTBI

sodium salt of dextran sulfate [LMW-DS]
Malonyl-CoA (5 mg/kg, 7 d post-sTBI): 6.02 ± 1.09 nmol/g w.w.
NADH (5 mg/kg, 7 d post-sTBI): 8.83 ± 1.26 nmol/g w.w.
NADPH (5 mg/kg, 7 d post-sTBI): 12.30 ± 2.86 nmol/g w.w.
NADP^+ (5 mg/kg, 7 d post-sTBI): 24.45 ± 8.97 nmol/g w.w.
NAD^+ (5 mg/kg, 7 d post-sTBI): 293.36 ± 41.55 nmol/g w.w.
NO2 (5 mg/kg, 7 d post-sTBI): 59.61 ± 12.91 nmol/g w.w.
NO3 (5 mg/kg, 7 d post-sTBI): 234.45 ± 40.05 nmol/g w.w.
UDP (5 mg/kg, 7 d post-sTBI): 44.19 ± 6.22 nmol/g w.w.
UDP-Gal (5 mg/kg, 7 d post-sTBI): 132.66 ± 9.12 nmol/g w.w.
UDP-GalNac (5 mg/kg, 7 d post-sTBI): 17.37 ± 4.98 nmol/g w.w.
UDP-Glc (5 mg/kg, 7 d post-sTBI): 58.10 ± 11.81 nmol/g w.w.
UDP-GlcNac (5 mg/kg, 7 d post-sTBI): 85.14 ± 29.45 nmol/g w.w.
UMP (5 mg/kg, 7 d post-sTBI): 167.18 ± 32.39 nmol/g w.w.
URACIL (5 mg/kg, 7 d post-sTBI): 18.34 ± 3.77 nmol/g w.w.
URIC ACID (5 mg/kg, 7 d post-sTBI): 17.26 ± 4.11 nmol/g w.w.
URIDINE (5 mg/kg, 7 d post-sTBI): 134.60 ± 31.89 nmol/g w.w.
UTP (5 mg/kg, 7 d post-sTBI): 175.02 ± 30.65 nmol/g w.w.
XANTHINE (5 mg/kg, 7 d post-sTBI): 14.33 ± 4.05 nmol/g w.w.
β-PSEUDOURIDINE (5 mg/kg, 7 d post-sTBI): 17.51 ± 3.25 nmol/g w.w.
ATP/ADP (5 mg/kg, 7 d post-sTBI): 6.28 ± 0.80
NAD+/NADH (5 mg/kg, 7 d post-sTBI): 33.90 ± 7.19
ADENOSINE [1]: 40.84 ± 30.25 nmol/g w.w.
ADP [1]: 260.32 ± 34.67 nmol/g w.w.
ADP-Ribose [1]: 13.23 ± 3.32 nmol/g w.w.
AMP [1]: 43.12 ± 3.39 nmol/g w.w.
ASCORBIC ACID [1]: 2617.09 ± 315.18 nmol/g w.w.
ATP [1]: 1971.17 ± 158.57 nmol/g w.w.
Acetyl-CoA [1]: 37.91 ± 6.46 nmol/g w.w.
CDP choline [1]: 11.72 ± 3.76 nmol/g w.w.
CMP [1]: 31.21 ± 13.28 nmol/g w.w.
CREATININE [1]: 9.07 ± 1.60 nmol/g w.w.
CTP [1]: 92.67 ± 16.27 nmol/g w.w.
CYTIDINE [1]: 72.85 ± 25.63 nmol/g w.w.
CYTOSINE [1]: 8.76 ± 1.88 nmol/g w.w.
CoA-SH [1]: 45.76 ± 5.87 nmol/g w.w.
GDP [1]: 109.06 ± 12.46 nmol/g w.w.
GDP Glucose [1]: 106.42 ± 12.45 nmol/g w.w.
GMP [1]: 61.86 ± 29.28 nmol/g w.w.
GSH [1]: 2342.03 ± 308.72 nmol/g w.w.
GTP [1]: 466.06 ± 42.38 nmol/g w.w.
GUANINE [1]: 3.32 ± 1.41 nmol/g w.w.
GUANOSINE [1]: 19.66 ± 4.10 nmol/g w.w.
HYPOXANTHINE [1]: 4.10 ± 1.19 nmol/g w.w.
IMP [1]: 141.84 ± 36.32 nmol/g w.w.
INOSINE [1]: 139.26 ± 15.62 nmol/g w.w.
MDA [1]: 4.09 ± 0.67 nmol/g w.w.
Malonyl-CoA [1]: 12.56 ± 2.27 nmol/g w.w.
NADH [1]: 11.05 ± 1.52 nmol/g w.w.
NADPH [1]: 11.21 ± 2.60 nmol/g w.w.
NADP^+ [1]: 16.56 ± 6.08 nmol/g w.w.
NAD^+ [1]: 401.73 ± 56.89 nmol/g w.w.
NO2 [1]: 130.69 ± 28.31 nmol/g w.w.
NO3 [1]: 271.69 ± 46.41 nmol/g w.w.
UDP [1]: 37.12 ± 5.22 nmol/g w.w.
UDP-Gal [1]: 135.15 ± 9.29 nmol/g w.w.
UDP-GalNac [1]: 16.50 ± 4.73 nmol/g w.w.
UDP-Glc [1]: 61.37 ± 12.47 nmol/g w.w.
UDP-GlcNac [1]: 86.42 ± 29.89 nmol/g w.w.
UMP [1]: 107.66 ± 20.86 nmol/g w.w.
URACIL [1]: 24.13 ± 4.96 nmol/g w.w.
URIC ACID [1]: 7.80 ± 1.86 nmol/g w.w.
URIDINE [1]: 97.21 ± 23.03 nmol/g w.w.
UTP [1]: 133.72 ± 23.42 nmol/g w.w.
XANTHINE [1]: 11.24 ± 3.18 nmol/g w.w.
β-PSEUDOURIDINE [1]: 16.72 ± 3.10 nmol/g w.w.
ATP/ADP [1]: 7.67 ± 0.97
NAD+/NADH [1]: 37.47 ± 9.46
ADENOSINE (15 mg/kg, 2 d post-sTBI): 53.25 ± 12.75 nmol/g w.w.
ADP (15 mg/kg, 2 d post-sTBI): 346.37 ± 29.79 nmol/g w.w.
ADP-Ribose (15 mg/kg, 2 d post-sTBI): 23.06 ± 4.63 nmol/g w.w.
AMP (15 mg/kg, 2 d post-sTBI): 66.26 ± 10.74 nmol/g w.w.
ASCORBIC ACID (15 mg/kg, 2 d post-sTBI): 2783.04 ± 160.17 nmol/g w.w.
ATP (15 mg/kg, 2 d post-sTBI): 1556.54 ± 91.20 nmol/g w.w.
Acetyl-CoA (15 mg/kg, 2 d post-sTBI): 32.38 ± 3.77 nmol/g w.w.
CDP choline (15 mg/kg, 2 d post-sTBI): 7.07 ± 1.05 nmol/g w.w.
CMP (15 mg/kg, 2 d post-sTBI): 25.61 ± 5.23 nmol/g w.w.
CREATININE (15 mg/kg, 2 d post-sTBI): 11.77 ± 2.19 nmol/g w.w.
CTP (15 mg/kg, 2 d post-sTBI): 37.53 ± 7.59 nmol/g w.w.
CYTIDINE (15 mg/kg, 2 d post-sTBI): 11.46 ± 2.07 nmol/g w.w.
CYTOSINE (15 mg/kg, 2 d post-sTBI): 13.57 ± 1.66 nmol/g w.w.
CoA-SH (15 mg/kg, 2 d post-sTBI): 9.35 ± 1.03 nmol/g w.w.
